The test system of series [1] is murine Lewis Lung Carcinoma (LLC). Kind of series: In vivo anticancer activity, LLC solid tumor model. The note with it: LLC-bearing C57BL mice, daily dosing days 7-14, evaluated day 15; 5i 20 mg kg−1 i.p., gemcitabine 60 mg kg−1, cisplatin 3 mg kg−1.
Text: Seven days after tumor inoculation the tumor-bearing mice were randomized into vehicle control and treatment groups.
The LLC was implanted intramuscularly (i.m.) as a 2 × 10^6 cell inoculum into the right hind leg of 8-week-old male and female C57BL mice (24 ± 3 g body weight). After 7 days from tumor implantation (visible tumors), mice were randomly divided into 4 groups (8 animals per group) and subjected to daily i.p. administration. […] At day 15, animals were sacrificed, the legs were amputated at the proximal end of the femur, and the inhibition of tumor growth was determined from the difference in the weights of the tumor-bearing leg and the healthy leg of the animals, expressed as a percentage referenced to the control animals. Body weight was measured at day 0 and from day 7 onwards every 2 days and was taken as a parameter for systemic toxicity. All presented values are the means ± SD of no less than three measurements.
Series [2] is described as follows: Body weight changes of LLC-bearing mice. Type of series: in vivo. The note with it: LLC-bearing C57BL mice, 5i 20 mg kg−1 daily i.p.
The subject of series [3] is PSN-1 cells. Briefly: ROS production (CM-H2DCFDA). Type of series: cell-based, human. The settings on record: 5 µM test compounds, antimycin 3 µM as positive control. As to the method: Consistently, tested compounds, although to different extents, were effective in reducing total cellular sulfhydryl contents in PSN-1-treated cells (Figure 9B).
The production of ROS was measured in PSN-1 cells (10^4 per well) grown for 24 h in a 96-well plate in RPMI medium without phenol red (Sigma Aldrich, Germany). Cells were then washed with PBS and loaded with 10 μM 5-(and-6)-chloromethyl-2′,7′-dichlorodihydrofluorescein diacetate acetylester (CM–H2DCFDA) (Molecular Probes-Invitrogen, Eugene, OR, USA) for 45 min, in the dark. Afterward, cells were washed with PBS and incubated with tested compounds. Fluorescence increase was estimated utilizing the wavelengths of 485 nm (excitation) and 527 nm (emission) in a VICTOR X3 (PerkinElmer, USA) plate reader. Antimycin (3 μM, Sigma Aldrich), a potent inhibitor of Complex III in the electron transport chain, was used as the positive control.

For a further series, the target named is recombinant human HSP90 (Homo sapiens, UniProt P07900). Briefly: HSP90 inhibition assay (Transcreener ADP kit). The settings on record: 1.5 µM compound (equivalent doses). Type of series: biochemical.
Series [4] has as its system PSN-1 cells. Kind of series: Cellular oxygen consumption (Mito-ID Extracellular O2 Sensor Kit). Type of series: cell-based, human. The note with it: IC50 concentrations. The method, then:
Cells were treated with DAP or representative compounds at IC50 concentrations and the changes in OCR and in the intracellular lactate formation were monitored.
PSN-1 cells (2 × 10^5) were seeded in a six-well plate in growth medium (4 mL). After 24 h, cells were incubated for 60 min with IC50 concentrations of tested compounds. Subsequently, oxygen consumption was assessed by Mito-ID® Extracellular O2 Sensor Kit according to manufacturer’s instructions. Fluorescence was measured using a Tecan microplate reader (Ex 340–400 nm, Em 630–680 nm).

For series [5], the system named is caspase-3 and -8 in PSN-1 cells. Kind of series: Caspase-3 and -8 activity. Type of series: cell-based, human. The settings on record: 24 h, IC50 doses. The method, then: Apoptotic cell death can be triggered by a mitochondria-mediated or mitochondrial-independent pathways. In the […], caspase-8 and caspase-3 play an essential role. […] Staurosporine (STS), an alkaloid inducing apoptosis through caspase-3 and -8 activation was used as a positive control. […] Caspase-3 and -8 cleavage reached values similar to that induced by the well-known caspase-dependent apoptosis inducer staurosporine (Figure 10C).
Protein aliquots (100 μg) were stained at 37 °C for 60 min with fluorescent caspase-3 (N-acetyl-Asp-Glu-Val-Asp-AMC, AMC = 7-amino-4-methylcoumarin) or caspase-8 (Ac-Val-Glu-Thr-Asp-AMC) substrates. Substrate hydrolysis was measured after 60 min by monitoring the release of AMC using a a Tecan microplate reader (excitation at 370 nm, emission at 460 nm).

Series [6] relates to S232 PDH E1 alpha protein (PDHA1) phosphorylation in LLC tissue. Briefly: PDH phosphorylation in mice tumor tissues (ELISA). Type of series: in vivo, C57BL mice. The settings on record: LLC-bearing mice, 5i 20 mg kg−1 daily i.p., tumors collected day 15. The method, then: As a proof-of-concept of PDK inhibitory activity of the newly developed 3-amino 1,2,4-triazines, we also assessed the phosphorylation level of S232-PDHA1 in tumor samples of animals treated with 5i. Tumors of treated animals collected on day 15 were homogenized and phopho-S232-PDHA1 levels were quantified by an ELISA Kit.
The phosphorylation level of S232 PDH E1 alpha protein (PDHA1) in LLC tissue homogenates was assessed by ELISA Kit (Abcam) following the manufacturer’s instructions. The amount of phosphorylated S232 PDHA1 protein was detected by measuring the absorbance of each well at 600 nm, using a Bio-Rad 680 microplate reader.
For orientation: In an ELISA, binding on a coated surface is turned into a signal by an enzyme label.

For series [7], the system named is S232 PDH E1 alpha protein (PDHA1) phosphorylation in PSN-1 cells. Briefly: Cellular PDH phosphorylation (ELISA). The note with it: 24 h, IC50 concentrations. Type of series: cell-based, human. The method, then:
As a first step, the ability of representative derivatives to target PDK in intact cancer cells was assessed by evaluating their effect on PDH phosphorylation of PSN-1 cancer cells.
PSN-1 cells (2 × 10^5) were seeded in a six-well plate in growth medium (4 mL). After 24 h, cells were incubated for 24 h with IC50 concentrations of tested compounds. Subsequently, the phosphorylation level of S232 PDH E1 alpha protein (PDHA1) was assessed by ELISA Kit (Abcam) following the manufacturer’s instructions. The amount of phosphorylated S232 PDHA1 protein was detected by measuring the absorbance of each well at 600 nm, using a Bio-Rad 680 microplate reader.

Another series concerns BxPC-3 cells. Kind of series: 3D spheroid cytotoxicity, acid phosphatase (APH) assay, BxPC-3. The settings on record: read-out: IC50 ±S.D. BxPC-3 (3D cytotoxicity); spheroids, 72 h, APH test.
The test system of series [8] is PSN-1 cells. Kind of series: Cell death induction, Hoechst 33258 staining. Type of series: cell-based, human. The note with it: 48 h, IC50 doses. The method, then: As a last mechanistic evaluation, the ability of selected compounds 5i and 6h to induce cancer cell death by means of apoptosis, was also assessed.
PSN-1 cells were seeded into 8-well tissue-culture slides (BD Falcon, Bedford, MA, USA) at 5 × 10^4 cells/well (0.8 cm^2). […] Samples were examined at 5× and 40× magnification in a Zeiss LSM 800 confocal microscope using the Zeiss ZEN 2.3 software system (Zeiss, Oberkochen, Germany).

What is called IC50 is the concentration at which inhibition is half-maximal.

Experimental for BxPC-3 cells: The PDAC cancer spheroids were treated with tested compounds for 72 h, and cell viability was assessed by means of the acid phosphatase (APH) assay (Table 3).
An APH-modified assay was used for determining cell viability in 3D spheroids, as previously described [61]. Briefly, the pre-seeded spheroids were treated with fresh medium containing the compound to be studied at the appropriate concentration (range 2.5–200 μM). Triplicate cultures were established for each treatment. After 72 h, each well was treated with 100 μL of the assay buffer (0.1 M sodium acetate, 0.1% Triton-X-100, supplemented with ImmunoPure p-nitrophenyl phosphate; Sigma Chemical Co., Ltd.) and, following 3 h of incubation, 10 μL of 1 M NaOH solution was added. […] The mean absorbance for each drug dose was expressed as a percentage of the control untreated well absorbance (T/C) and plotted vs. drug concentration. […] The evaluation was based on means from at least four independent experiments.

Take `Cn1cc(-c2nnc(N)nc2-c2cn(C)c3ccc(F)cc23)c2ccccc21` [5i]: the “reduction in tumor growth compared to the control group” value in [1] is “about 80%”. The “body weight loss (in words)” value in [2] is “lower than that induced by cisplatin and gemcitabine”. Moreover, the “ROS basal level production / hydrogen peroxide formation” value in the series on PSN-1 cells [3] is recorded as “even higher than that provoked by antimycin”. For the same molecule, at recombinant human HSP90, the “decrease of HSP90 catalytic activity” value is 60–80%. Moreover, in the series on PSN-1 cells [4], the “cellular oxygen consumption (OCR)” value is given as “more effective than DAP”. The “caspase-3 and -8 activation” value in [5] was “significantly activated”. Also, the “phospho-S232-PDHA1 level in tumor samples” value in [6] is “dramatically reduced PDH phosphorylation”. Further, the “reduction in phospho-PDHA1 (S232) levels” value in [7] is “very similar to that exerted by the reference PDK inhibitor DAP”. Also, the 50% inhibitory concentration (IC50) in the series with BxPC-3 cells was found to be 34.1 ± 1.5 µM. For the same molecule, in the series on PSN-1 cells [8], the “apoptosis induction (nuclear morphology)” value is “brightly stained nuclei and morphological features typical of cells undergoing apoptosis”.

(Values after paper PMC9959349, “Discovery of the 3-Amino-1,2,4-triazine-Based Library as Selective PDK1 Inhibitors with Therapeutic Potential in Highly Aggressive Pancreatic Ductal Adenocarcinoma” (International Journal of Molecular Sciences, 2023).)
